In US10093630B2, “Pyrazole compounds and methods of making and using same” (ABIDE THERAPEUTICS, INC., priority 2014, dated 2018):

Legend:
Experiment in all cases: In vitro competitive activity-based protein profiling (gel-based, FP-Rh or HT-01 probe)
Type in all cases: biochemical
ABHD6 = target: T1, ABHD6 (Mus musculus, UniProt Q8R2Y0); settings: for inhibition at 1 µM: 1 μM inhibitor, read-out: % Inhibition at 1 μM, C = ABHD6; for inhibition at 10 µM: 10 μM inhibitor, read-out: % Inhibition at 10 μM, C = ABHD6; for IC50: mouse brain membrane fraction or cell lysates, 30 min preincubation at 37° C., read-out: Mouse (IC50 value, nM) ABHD6
T1 construct: Proteomes (mouse brain membrane fraction or cell lysates); from tissue; host or cells: mouse brain membrane fraction (or cell lysates, not specified)
T1 sequence (Q8R2Y0 1-336): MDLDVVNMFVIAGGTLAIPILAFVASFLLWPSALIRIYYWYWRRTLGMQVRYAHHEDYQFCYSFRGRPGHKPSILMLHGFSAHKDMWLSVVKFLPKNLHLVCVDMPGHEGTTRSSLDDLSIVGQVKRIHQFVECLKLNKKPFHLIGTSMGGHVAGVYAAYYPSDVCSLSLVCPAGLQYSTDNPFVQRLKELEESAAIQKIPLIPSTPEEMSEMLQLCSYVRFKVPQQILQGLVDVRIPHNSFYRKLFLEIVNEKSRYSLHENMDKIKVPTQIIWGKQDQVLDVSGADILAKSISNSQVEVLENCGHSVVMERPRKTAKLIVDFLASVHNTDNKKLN
Method in brief: (§1)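 Competitive labelling format in mouse brain membrane fractions or lysates at 1.0 mg/mL total protein: compounds preincubate 30 min at 37° C, activity probe FP-Rh or HT-01 then reacts 30 min at 37° C. Gel band fluorescence gives target activity.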

PLA2G7 = target: T2, PLA2G7 (Mus musculus, UniProt Q60963); settings: for inhibition at 1 µM: 1 μM inhibitor, read-out: % Inhibition at 1 μM, D = PLA2G7; for inhibition at 10 µM: 10 μM inhibitor, read-out: % Inhibition at 10 μM, D = PLA2G7
T2 construct: Proteomes (mouse brain membrane fraction or cell lysates); from tissue; host or cells: mouse brain membrane fraction (or cell lysates, not specified)
T2 sequence (Q60963 22-440): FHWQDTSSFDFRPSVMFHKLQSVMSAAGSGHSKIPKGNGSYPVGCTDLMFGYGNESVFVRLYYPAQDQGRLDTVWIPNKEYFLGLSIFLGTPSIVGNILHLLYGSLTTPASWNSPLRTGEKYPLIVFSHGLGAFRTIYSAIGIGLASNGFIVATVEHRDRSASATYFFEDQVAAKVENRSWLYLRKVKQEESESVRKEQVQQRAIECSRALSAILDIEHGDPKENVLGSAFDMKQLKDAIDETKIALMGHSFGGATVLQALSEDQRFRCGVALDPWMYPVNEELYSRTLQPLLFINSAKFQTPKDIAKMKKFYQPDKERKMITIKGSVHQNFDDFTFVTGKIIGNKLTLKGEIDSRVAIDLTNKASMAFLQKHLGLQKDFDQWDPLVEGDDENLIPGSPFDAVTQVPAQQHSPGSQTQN
Method in brief: as §1

FAAH = target: T3, FAAH (Mus musculus, UniProt O08914); settings: for inhibition at 1 µM: 1 μM inhibitor, read-out: % Inhibition at 1 μM, B = FAAH; for inhibition at 10 µM: 10 μM inhibitor, read-out: % Inhibition at 10 μM, B = FAAH; for IC50: mouse brain membrane fraction or cell lysates, 30 min preincubation at 37° C., read-out: Mouse (IC50 value, nM) FAAH
T3 construct: Proteomes (mouse brain membrane fraction or cell lysates); from tissue; host or cells: mouse brain membrane fraction (or cell lysates, not specified)
T3 sequence (O08914 1-579): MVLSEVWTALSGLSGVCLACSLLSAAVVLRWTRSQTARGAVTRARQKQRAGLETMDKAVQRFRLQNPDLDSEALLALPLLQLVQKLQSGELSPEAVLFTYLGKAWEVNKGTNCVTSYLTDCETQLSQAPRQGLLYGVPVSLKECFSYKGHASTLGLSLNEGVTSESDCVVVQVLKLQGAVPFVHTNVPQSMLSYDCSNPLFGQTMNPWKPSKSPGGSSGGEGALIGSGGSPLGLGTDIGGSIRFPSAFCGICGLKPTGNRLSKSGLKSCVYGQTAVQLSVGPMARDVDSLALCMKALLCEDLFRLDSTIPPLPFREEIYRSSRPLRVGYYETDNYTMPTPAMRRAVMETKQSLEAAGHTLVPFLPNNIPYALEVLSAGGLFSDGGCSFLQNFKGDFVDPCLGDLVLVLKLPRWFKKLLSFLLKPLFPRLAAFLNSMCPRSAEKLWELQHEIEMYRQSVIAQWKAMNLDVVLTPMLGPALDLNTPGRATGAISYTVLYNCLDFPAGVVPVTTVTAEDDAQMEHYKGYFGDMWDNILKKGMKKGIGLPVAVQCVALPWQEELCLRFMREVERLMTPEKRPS
Method in brief: as §1

MAGL = target: T4, MAGL (Mus musculus, UniProt O35678); settings: for inhibition at 1 µM: 1 μM inhibitor; for inhibition at 10 µM: 10 μM inhibitor; for IC50: mouse brain membrane fraction or cell lysates, 30 min preincubation at 37° C., read-out: Mouse (IC50 value, nM) MAGL
T4 construct: Proteomes (mouse brain membrane fraction or cell lysates); from tissue; host or cells: mouse brain membrane fraction (or cell lysates, not specified)
T4 sequence (O35678 1-303): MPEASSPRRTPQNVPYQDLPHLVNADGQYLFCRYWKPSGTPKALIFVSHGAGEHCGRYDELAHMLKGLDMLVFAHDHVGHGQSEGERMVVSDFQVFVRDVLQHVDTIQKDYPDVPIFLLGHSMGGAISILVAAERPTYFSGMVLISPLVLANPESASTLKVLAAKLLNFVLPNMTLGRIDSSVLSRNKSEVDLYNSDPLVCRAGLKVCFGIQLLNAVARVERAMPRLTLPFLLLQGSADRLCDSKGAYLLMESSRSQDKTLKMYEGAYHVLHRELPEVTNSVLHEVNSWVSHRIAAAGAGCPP
Method in brief: as §1

inhibition at 1 µM (ABHD6) [%] | inhibition at 10 µM (ABHD6) [%] | IC50 (ABHD6) [nM] | inhibition at 1 µM (PLA2G7) [%] | inhibition at 10 µM (PLA2G7) [%] | inhibition at 1 µM (FAAH) [%] | inhibition at 10 µM (FAAH) [%] | IC50 (FAAH) [nM] | inhibition at 1 µM (MAGL) [%] | inhibition at 10 µM (MAGL) [%] | IC50 (MAGL) [nM] | Structure (SMILES)
> 75 | > 75 | 100 to 1000 | < 25 | > 75 | > 75 | > 75 | < 100 | > 75 | > 75 | 100 to 1000 | Cc1cc(-c2ccccc2)ccc1CN1CCN(C(=O)n2cc(C(=O)N3CCOCC3)cn2)CC1 [Example 57, (4-((3-Methyl-[1,1′-biphenyl]-4-yl)methyl)piperazin-1-yl)(4-(morpholine-4-carbonyl)-1H-pyrazol-1-yl)methanone]
> 75 | > 75 | 100 to 1000 | > 75 | > 75 | > 75 | > 75 | – | < 25 | > 75 | – | O=C(N1CCN(Cc2ccc3c(c2)OCO3)CC1)n1cc(-c2ccccc2)cn1 [Example 58, (4-(Benzo[d][1,3]dioxol-5-ylmethyl)piperazin-1-yl)(4-phenyl-1H-pyrazol-1-yl)methanone]
> 75 | > 75 | 100 to 1000 | > 75 | > 75 | – | > 75 | – | – | 25 to 75 | – | O=C(N1CCN(Cc2ccncc2)CC1)n1cc(-c2ccccc2)cn1 [Example 59, (4-Phenyl-1H-pyrazol-1-yl)(4-(pyridin-4-ylmethyl)piperazin-1-yl)methanone]
> 75 | > 75 | 100 to 1000 | > 75 | > 75 | – | > 75 | – | – | 25 to 75 | – | O=C(N1CCN(Cc2cccnc2)CC1)n1cc(-c2ccccc2)cn1 [Example 60, (4-Phenyl-1H-pyrazol-1-yl)(4-(pyridin-3-ylmethyl)piperazin-1-yl)methanone]
> 75 | > 75 | – | > 75 | > 75 | – | > 75 | – | – | < 25 | – | O=C(N1CCN(Cc2ccccn2)CC1)n1cc(-c2ccccc2)cn1 [Example 61, (4-Phenyl-1H-pyrazol-1-yl)(4-(pyridin-2-ylmethyl)piperazin-1-yl)methanone]
> 75 | > 75 | – | > 75 | > 75 | – | > 75 | – | – | < 25 | – | O=C(N1CCN(Cc2ccncn2)CC1)n1cc(-c2ccccc2)cn1 [Example 62, (4-Phenyl-1H-pyrazol-1-yl)(4-(pyrimidin-4-ylmethyl)piperazin-1-yl)methanone]
> 75 | > 75 | 100 to 1000 | > 75 | > 75 | – | > 75 | – | – | < 25 | – | O=C(N1CCN(Cc2nccs2)CC1)n1cc(-c2ccccc2)cn1 [Example 63, (4-Phenyl-1H-pyrazol-1-yl)(4-(thiazol-2-ylmethyl)piperazin-1-yl)methanone]
> 75 | > 75 | – | > 75 | > 75 | – | < 25 | – | – | < 25 | – | O=C(N1CCN(Cc2cncnc2)CC1)n1cc(-c2ccccc2)cn1 [Example 64, (4-Phenyl-1H-pyrazol-1-yl)(4-(pyrimidin-5-ylmethyl)piperazin-1-yl)methanone]
> 75 | > 75 | – | > 75 | > 75 | > 75 | > 75 | – | < 25 | > 75 | – | Cc1cc(-c2ccccc2)ccc1CN1CCN(C(=O)n2cc(-c3ccccc3)cn2)CC1 [Example 65, (4-((3-Methyl-[1,1′-biphenyl]-4-yl)methyl)piperazin-1-yl)(4-phenyl-1H-pyrazol-1-yl)methanone]
> 75 | > 75 | 100 to 1000 | > 75 | > 75 | < 25 | 25 to 75 | > 1000 | > 75 | > 75 | 100 to 1000 | O=C(c1cnn(C(=O)N2CCN(C(c3ccc(Cl)cc3)c3ccc(Cl)cc3)CC2)c1)N1CCOCC1 [Example 67, (4-(Bis(4-chlorophenyl)methyl)piperazin-1-yl)(4-(morpholine-4-carbonyl)-1H-pyrazol-1-yl)methanone]
> 75 | > 75 | – | > 75 | > 75 | > 75 | > 75 | – | 25 to 75 | > 75 | – | O=C(c1cnn(C(=O)N2CCN(Cc3ccc4c(c3)OCO4)CC2)c1)N1CCCCC1 [Example 69, (4-(Benzo[d][1,3]dioxol-5-ylmethyl)piperazin-1-yl)(4-(piperidine-1-carbonyl)-1H-pyrazol-1-yl)methanone]
25 to 75 | > 75 | – | > 75 | > 75 | < 25 | 25 to 75 | – | < 25 | < 25 | – | O=C(c1cnn(C(=O)N2CCN(Cc3ccncc3)CC2)c1)N1CCCCC1 [Example 70, Piperidin-1-yl(1-(4-(pyridin-4-ylmethyl)piperazine-1-carbonyl)-1H-pyrazol-4-yl)methanone]
25 to 75 | > 75 | – | > 75 | > 75 | < 25 | 25 to 75 | – | < 25 | < 25 | – | O=C(c1cnn(C(=O)N2CCN(Cc3cccnc3)CC2)c1)N1CCCCC1 [Example 71, Piperidin-1-yl(1-(4-(pyridin-3-ylmethyl)piperazine-1-carbonyl)-1H-pyrazol-4-yl)methanone]
< 25 | > 75 | – | > 75 | > 75 | < 25 | > 75 | – | < 25 | < 25 | – | O=C(c1cnn(C(=O)N2CCN(Cc3ccccn3)CC2)c1)N1CCCCC1 [Example 72, Piperidin-1-yl(1-(4-(pyridin-2-ylmethyl)piperazine-1-carbonyl)-1H-pyrazol-4-yl)methanone]
